{"source": "ChEMBL document CHEMBL4184182", "about": "“Studies on interactions of carbazole derivatives with DNA, cell image, and cytotoxicity” (Bioorg Med Chem, 2018)", "key": {"Quadruplex DNA": {"system": "Quadruplex DNA", "assay": "Binding affinity to Bcl2 G-quadruplex DNA (unknown origin) assessed as absorption maximum at 5 uM after 5 mins by fluorescence titration method (reference value: 453 nanometer)", "assay_type": "nucleic-acid assay"}, "[1]": {"assay": "Drug uptake in RNase-A treated human HepG2 cell nucleus at 3 uM after 30 mins by H33258.staining based confocal microscopic method", "assay_type": "ADME, subcellular", "details": "hepg2, 0.5 h; call rule not given here"}}, "data": [{"smiles": "CCn1c2ccccc2c2cc(/C=C/c3sc4ccccc4[n+]3CC)ccc21.[I-]", "values": [{"measurement": "Activity", "setting": "Quadruplex DNA", "value": 500, "unit": "nm"}, {"measurement": "Drug uptake", "setting": "[1]", "value": "Active"}]}]}
